Drawing on article PMC4618944, “Congo Red Interactions with Curli-Producing E. coli and Native Curli Amyloid Fibers” (PLoS ONE, 2015), this text covers Kd for one compound.

The structures appear in SMILES notation.

This test deals with T1, curli (CsgA amyloid fibers) (Escherichia coli, UniProt P28307).
T1 construct: native curli fibers isolated from MC4100, mature CsgA polymer (sec signal removed; native fibers may contain minor nucleator CsgB); immobilized by amine coupling for SPR
In words: surface plasmon resonance (Biacore […]), curli immobilized on CM5 chip. The test is classed as binding.

T1 sequence (P28307 21-151): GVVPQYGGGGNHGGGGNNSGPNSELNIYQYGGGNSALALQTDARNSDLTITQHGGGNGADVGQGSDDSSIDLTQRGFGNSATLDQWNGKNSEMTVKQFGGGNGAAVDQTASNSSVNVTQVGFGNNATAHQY

As to `Nc1c(/N=N/c2ccc(-c3ccc(/N=N/c4cc(S(=O)(=O)O)c5ccccc5c4N)cc3)cc2)cc(S(=O)(=O)O)c2ccccc12` [CR, Congo red], the affinity, expressed as Kd, was 2800 nM.
